Data: the supplement of paper PMC10307832

Tests used:
Assay in all cases: relative viability (nuclei count vs DMSO), 5 days (fraction); higher = more cells survive
[1] = compound: CC1=CC=C(C=C1)C(=O)CN2C3=C(CCCC3)SC2=N [Pifithrin_alpha] + CC(C)C[C@H](NC(=O)[C@H](Cc1ccccc1)NC(=O)c1cnccn1)B(O)O [Bortezomib] (partner 0.002 µM)
How it was run: (§1)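 Lung cancer cell lines in 1536-well plates were dosed by pin tool the day after seeding, either with one drug alone or with a fixed anchor-drug dose plus five library-drug doses (not always all listed) in √10 steps. After 5 days, cells were fixed and their nuclei stained in one step (final 0.05% Triton X-100, 1% formaldehyde, 1 ug/ml Hoechst), then counted on 4× images. Relative viability is the nuclei count in treated wells divided by that in vehicle wells. Values are medians of duplicate plates.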

[2] = compound: CC1=CC=C(C=C1)C(=O)CN2C3=C(CCCC3)SC2=N [Pifithrin_alpha] + C[C@]1(O)C[C@@H](c2nc(-c3ccc4ccc(-c5ccccc5)nc4c3)c3c(N)nccn32)C1 [Linsitinib] (partner 1 µM)
How it was run: as §1

[3] = compound: CC1=CC=C(C=C1)C(=O)CN2C3=C(CCCC3)SC2=N [Pifithrin_alpha] + N=C(N)NC(=N)NCCc1ccccc1 [Phenformin] (partner 250 µM)
How it was run: as §1

Bemcentinib + Dasatinib = compound: Nc1nc(Nc2ccc3c(c2)CC[C@@H](N2CCCC2)CC3)nn1-c1cc2c(nn1)-c1ccccc1CCC2 [Bemcentinib] + Cc1nc(Nc2ncc(C(=O)Nc3c(C)cccc3Cl)s2)cc(N2CCN(CCO)CC2)n1 [Dasatinib] (partner 0.075 µM)
How it was run: as §1

Row | Cell Line | relative viability ([1]; first compound 1 µM) | relative viability ([1]; first compound 3.162 µM) | relative viability ([1]; first compound 10 µM) | relative viability ([1]; first compound 31.62 µM) | relative viability ([1]; first compound 100 µM) | relative viability ([2]; first compound 1 µM) | relative viability ([2]; first compound 3.162 µM) | relative viability ([2]; first compound 10 µM) | relative viability ([2]; first compound 31.62 µM) | relative viability ([2]; first compound 100 µM) | relative viability ([3]; first compound 1 µM) | relative viability ([3]; first compound 3.162 µM) | relative viability ([3]; first compound 10 µM) | relative viability ([3]; first compound 31.62 µM) | relative viability ([3]; first compound 100 µM) | relative viability (Bemcentinib + Dasatinib; first compound 0.04 µM) | relative viability (Bemcentinib + Dasatinib; first compound 0.1265 µM) | relative viability (Bemcentinib + Dasatinib; first compound 0.4 µM) | relative viability (Bemcentinib + Dasatinib; first compound 1.265 µM) | relative viability (Bemcentinib + Dasatinib; first compound 4 µM)
1 | NCI-H1755 | 0.894 | 0.907 | 0.866 | 0.862 | 0.971 | 0.935 | 0.991 | 0.905 | 0.802 | 0.969 | 0.605 | 0.603 | 0.57 | 0.423 | 0.53 | 0.379 | 0.511 | 0.397 | 0.438 | 0.41
2 | NCI-H520 | 0.64 | 0.771 | 0.567 | 0.386 | 0.739 | 1.07 | 1.07 | 0.946 | 0.623 | 1.12 | 0.579 | 0.554 | 0.566 |  | 0.581 | 0.197 | 0.194 | 0.257 | 0.206 | 0.23
3 | PC-14 | 0.821 | 0.829 | 0.964 | 0.888 | 0.882 | 0.975 | 0.979 | 0.941 | 0.764 | 0.743 | 0.536 | 0.567 | 0.525 | 0.406 | 0.413 | 0.236 | 0.259 | 0.249 | 0.224 | 0.236
4 | NCI-H2405 | 0.869 | 0.935 | 0.925 | 0.857 | 0.953 |  | 0.869 | 0.867 | 0.804 | 0.776 | 0.371 | 0.504 | 0.481 | 0.463 | 0.479 | 0.194 | 0.22 | 0.21 | 0.215 | 0.165
5 | NCI-H596 | 0.969 | 1.1 | 1.23 | 1.03 | 1.06 | 1.04 | 1.2 | 1.21 | 1.11 | 1.16 | 0.761 | 0.737 | 0.84 | 0.766 | 0.494 | 0.454 | 0.604 | 0.575 | 0.593 | 0.627
